Assay results published in patent US20230373939A1 (VERTEX PHARMACEUTICALS INCORPORATED, priority 2020, published 2023).

Biological target: T1, F508del in NIH 3T3 cells (Homo sapiens, UniProt P13569, DEL508-508)
T1 construct: expressed in transfected cells
Test: 3T3 assay: membrane potential optical assay for F508del correction
Type: cell-based
Details: NIH 3T3 cells, F508del; for Emax: NIH3T3, read-out: 3T3 Max Activity (%); for EC50: read-out: 3T3 EC50
Summary of the method: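 NIH 3T3 mouse fibroblasts stably expressing F508del were incubated with corrector compounds at a range of concentrations for 16–24 h at 37 °C, then loaded with a voltage-sensing redistribution dye. Channel activity was read as membrane-potential change on FLIPR after a single addition of forskolin with a chloride-free (gluconate) bath creating a Cl⁻ gradient.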

T1 sequence (P13569 with tags, fused parts or gaps DEL508-508): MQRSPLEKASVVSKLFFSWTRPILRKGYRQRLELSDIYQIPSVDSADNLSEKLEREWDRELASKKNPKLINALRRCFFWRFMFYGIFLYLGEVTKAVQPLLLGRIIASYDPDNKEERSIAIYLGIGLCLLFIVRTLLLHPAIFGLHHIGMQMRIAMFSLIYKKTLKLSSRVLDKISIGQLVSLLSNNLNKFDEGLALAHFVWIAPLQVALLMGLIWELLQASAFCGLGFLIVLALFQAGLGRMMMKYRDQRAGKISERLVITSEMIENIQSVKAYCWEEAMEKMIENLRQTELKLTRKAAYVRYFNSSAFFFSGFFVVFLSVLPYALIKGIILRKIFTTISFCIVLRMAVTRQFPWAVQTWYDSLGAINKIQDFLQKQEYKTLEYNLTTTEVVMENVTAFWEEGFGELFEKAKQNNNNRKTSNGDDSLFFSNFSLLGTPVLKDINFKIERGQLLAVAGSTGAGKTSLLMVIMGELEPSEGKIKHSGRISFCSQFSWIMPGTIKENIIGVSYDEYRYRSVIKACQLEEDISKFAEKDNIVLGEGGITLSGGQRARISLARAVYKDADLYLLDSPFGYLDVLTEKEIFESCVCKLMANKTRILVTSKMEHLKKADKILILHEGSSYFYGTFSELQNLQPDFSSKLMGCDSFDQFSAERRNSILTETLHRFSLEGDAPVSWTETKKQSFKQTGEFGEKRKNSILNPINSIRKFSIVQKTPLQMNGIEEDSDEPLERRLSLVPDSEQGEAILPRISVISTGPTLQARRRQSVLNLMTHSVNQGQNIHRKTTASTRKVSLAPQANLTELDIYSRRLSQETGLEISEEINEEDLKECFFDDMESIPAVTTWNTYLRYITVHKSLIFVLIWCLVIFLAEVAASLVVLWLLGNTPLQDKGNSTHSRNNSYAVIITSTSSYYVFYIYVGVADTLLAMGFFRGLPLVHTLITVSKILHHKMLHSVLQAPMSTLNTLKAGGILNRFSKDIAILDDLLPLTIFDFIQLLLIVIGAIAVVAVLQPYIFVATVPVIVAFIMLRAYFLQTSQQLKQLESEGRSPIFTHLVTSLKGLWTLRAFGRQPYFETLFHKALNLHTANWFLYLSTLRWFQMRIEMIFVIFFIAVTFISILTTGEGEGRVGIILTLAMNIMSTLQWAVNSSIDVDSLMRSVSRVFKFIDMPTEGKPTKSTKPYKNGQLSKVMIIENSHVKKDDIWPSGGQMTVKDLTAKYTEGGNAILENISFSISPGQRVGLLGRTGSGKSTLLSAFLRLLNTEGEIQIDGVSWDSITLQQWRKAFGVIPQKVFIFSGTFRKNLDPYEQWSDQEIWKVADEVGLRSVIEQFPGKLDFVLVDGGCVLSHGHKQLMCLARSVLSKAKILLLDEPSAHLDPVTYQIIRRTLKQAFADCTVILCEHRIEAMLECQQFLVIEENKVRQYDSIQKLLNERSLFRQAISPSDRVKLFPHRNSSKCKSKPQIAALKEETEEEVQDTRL

## O=S(=O)(Nc1nn(Cc2ccccc2)cc1-c1ccccc1Cl)c1ccccc1 [Compound 110, N-[1-benzyl-4-(2-chlorophenyl)pyrazol-3-yl]benzenesulfonamide]
  Emax: < 30%

## COc1ccc(-c2cn(Cc3ccccc3)nc2NS(=O)(=O)c2ccccc2)cc1 [Compound 111, N-[1-benzyl-4-(4-methoxyphenyl)pyrazol-3-yl]benzenesulfonamide]
  Emax: < 30%

## COc1cccc(-c2cn(Cc3ccccc3)nc2NS(=O)(=O)c2ccccc2)c1 [Compound 112]
  Emax: < 30%

## COc1ccccc1-c1cn(Cc2ccccc2)nc1NS(=O)(=O)c1ccccc1 [Compound 113, N-[1-benzyl-4-(2-methoxyphenyl)pyrazol-3-yl]benzenesulfonamide]
  Emax: < 30%

## Cc1cccc(-c2cn(Cc3ccccc3)nc2NS(=O)(=O)c2ccccc2)c1 [Compound 114, N-[1-benzyl-4-(m-tolyl)pyrazol-3-yl]benzenesulfonamide]
  Emax: < 30%

## Cc1ccccc1-c1cn(Cc2ccccc2)nc1NS(=O)(=O)c1ccccc1 [Compound 115]
  Emax: < 30%

## CCOC(=O)C1=C(c2ccccc2)N=C(NS(=O)(=O)c2ccccc2)SC1c1ccccc1 (stereo not shown) [Compound 116, ethyl 2-(benzenesulfonamido)-4,6-diphenyl-6H-1,3-thiazine-5-carboxylate]
  Emax: > 60%
  EC50: < 1 µM

## O=S(=O)(NC1=NC(c2ccccc2)C=C(c2ccccc2)S1)c1ccccc1 (stereo not shown) [Compound 117, N-(4,6-diphenyl-4H-1,3-thiazin-2-yl)benzenesulfonamide]
  Emax: 30 to 60%
  EC50: 1 to 3 µM

## O=S(=O)(Nc1ncc(-c2ccccc2)nc1-c1ccccc1)c1ccccc1 [Compound 118, N-(3,5-diphenylpyrazin-2-yl)benzenesulfonamide]
  Emax: > 60%
  EC50: 1 to 3 µM

## Cc1cccc(C)c1-c1cnc(NCc2ccccc2)c(NS(=O)(=O)c2ccccc2)n1 [Compound 119, N-[3-(benzylamino)-6-(2,6-dimethylphenyl)pyrazin-2-yl]benzenesulfonamide]
  Emax: 30 to 60%
  EC50: 1 to 3 µM

## O=c1c(NS(=O)(=O)c2ccccc2)nc(-c2ccccc2)cn1-c1ccccc1 [Compound 120, N-(3-oxo-4,6-diphenyl-pyrazin-2-yl)benzenesulfonamide]
  Emax: 30 to 60%
  EC50: 1 to 3 µM

## Cc1cccc(C)c1-c1cnc(Oc2ccccc2)c(NS(=O)(=O)c2ccccc2)n1 [Compound 121, N-[6-(2,6-dimethylphenyl)-3-phenoxy-pyrazin-2-yl]benzenesulfonamide]
  Emax: < 30%

## Cc1cccc(C)c1-c1cnc(N2CCN(C)CC2)c(NS(=O)(=O)c2ccccc2)n1 [Compound 122, N-[6-(2,6-dimethylphenyl)-3-(4-methylpiperazin-1-yl)pyrazin-2-yl]benzenesulfonamide]
  Emax: < 30%

## CC(C)Oc1nc(NS(=O)(=O)c2ccccc2)nc(-c2ccccc2)n1 [Compound 124, N-(4-isopropoxy-6-phenyl-1,3,5-triazin-2-yl)benzenesulfonamide]
  Emax: 30 to 60%
  EC50: 3 to 30 µM

## O=S(=O)(Nc1nc(Oc2ccccc2)nc(-c2ccccc2)n1)c1ccccc1 [Compound 125, N-(4-phenoxy-6-phenyl-1,3,5-triazin-2-yl)benzenesulfonamide]
  Emax: 30 to 60%
  EC50: < 1 µM

## Nc1cccc(S(=O)(=O)Nc2nc(Oc3ccccc3)nc(-c3ccccc3)n2)c1 [Compound 126, 3-amino-N-(4-phenoxy-6-phenyl-1,3,5-triazin-2-yl)benzenesulfonamide]
  Emax: 30 to 60%
  EC50: 3 to 30 µM

## CC1CN(c2cc(NS(=O)(=O)c3ccccc3)nc(Oc3ccccc3)n2)C(C)(C)C1 (stereo not shown) [Compound 128, N-[2-phenoxy-6-(2,2,4-trimethylpyrrolidin-1-yl)pyrimidin-4-yl]benzenesulfonamide]
  Emax: 30 to 60%
  EC50: < 1 µM

## CC1CN(c2nc(NS(=O)(=O)c3ccccc3)cc(Oc3ccccc3)n2)C(C)(C)C1 (stereo not shown) [Compound 129, N-[6-phenoxy-2-(2,2,4-trimethylpyrrolidin-1-yl)pyrimidin-4-yl]benzenesulfonamide]
  Emax: < 30%

## O=S(=O)(Nc1cc(-c2ccccc2)nc(Oc2ccccc2)n1)c1ccccc1 [Compound 130, N-(2-phenoxy-6-phenylpyrimidin-4-yl)benzenesulfonamide]
  Emax: 30 to 60%
  EC50: 1 to 3 µM

## O=S(=O)(Nc1cc(-c2ccccc2)nc(-c2ccccc2)n1)c1ccccc1 [Compound 131, N-(2,6-diphenylpyrimidin-4-yl)benzenesulfonamide]
  Emax: > 60%
  EC50: 1 to 3 µM

## O=S(=O)(Nc1cc(OCc2ccccc2)nc(-c2ccccc2)n1)c1ccccc1 [Compound 132, N-(6-benzyloxy-2-phenyl-pyrimidin-4-yl)benzenesulfonamide]
  Emax: 30 to 60%
  EC50: 1 to 3 µM

## O=S(=O)(Nc1cc(Oc2ccccc2)cc(Oc2ccccc2)n1)c1ccccc1 [Compound 133, N-(4,6-Diphenoxy-2-pyridyl)benzenesulfonamide]
  Emax: > 60%
  EC50: 1 to 3 µM

## Cc1ccc(-c2nc(NS(=O)(=O)c3ccccc3)ccc2C)cc1C [Compound 134, N-[6-(3,4-Dimethylphenyl)-5-methyl-2-pyridyl]benzenesulfonamide]
  Emax: > 60%
  EC50: 3 to 30 µM

## Cc1cc(NS(=O)(=O)c2ccccc2)nc(-c2cc(C)ccc2C)c1 [Compound 135, N-[6-(2,5-Dimethylphenyl)-4-methyl-2-pyridyl]benzenesulfonamide]
  Emax: > 60%
  EC50: 1 to 3 µM

## O=S(=O)(Nc1cc(Oc2ccccc2)cc(-c2ccccc2)n1)c1ccccc1 [Compound 136, N-(4-phenoxy-6-phenyl-2-pyridyl)benzenesulfonamide]
  Emax: > 60%
  EC50: 1 to 3 µM

## Cc1ccc(NS(=O)(=O)c2ccccc2)nc1-c1cccc(C)c1C [Compound 137, N-[6-(2,3-Dimethylphenyl)-5-methyl-2-pyridyl]benzenesulfonamide]
  Emax: > 60%
  EC50: 1 to 3 µM

## Cc1ccc(C)c(-c2nc(NS(=O)(=O)c3ccccc3)ccc2C)c1 [Compound 138, N-[6-(2,5-Dimethylphenyl)-5-methyl-2-pyridyl]benzenesulfonamide]
  Emax: > 60%
  EC50: 1 to 3 µM

## Cc1ccc(C)c(-c2nc(NS(=O)(=O)c3ccccc3)cc(C)c2C)c1 [Compound 139, N-[6-(2,5-Dimethylphenyl)-4,5-dimethyl-2-pyridyl]benzenesulfonamide]
  Emax: > 60%
  EC50: 1 to 3 µM

## CCCc1ccc(NS(=O)(=O)c2ccccc2)nc1-c1ccc(C)cc1 [Compound 140, N-[5-propyl-6-(p-tolyl)-2-pyridyl]benzenesulfonamide]
  Emax: > 60%
  EC50: 1 to 3 µM

## C/C=C/c1ccc(NS(=O)(=O)c2ccccc2)nc1Oc1ccccc1 [Compound 141, N-[6-phenoxy-5-[(E)-prop-1-enyl]-2-pyridyl]benzenesulfonamide]
  Emax: > 60%
  EC50: 1 to 3 µM

## O=S(=O)(Nc1cc(-c2ccccc2)cc(Oc2ccccc2)n1)c1ccccc1 [Compound 142, N-(6-phenoxy-4-phenyl-2-pyridyl)benzenesulfonamide]
  Emax: > 60%
  EC50: < 1 µM

## Cc1ccc(-c2cc(NS(=O)(=O)c3ccccc3)nc(-c3ccc(C)cc3)c2)cc1 [Compound 143, N-[4,6-bis(p-tolyl)-2-pyridyl]benzenesulfonamide]
  Emax: > 60%
  EC50: 1 to 3 µM

## Cc1ccc(-c2ccc(NS(=O)(=O)c3ccccc3)nc2-c2ccc(C)cc2)cc1 [Compound 144, N-[5,6-bis(p-tolyl)-2-pyridyl]benzenesulfonamide]
  Emax: > 60%
  EC50: 1 to 3 µM

## C/C=C/c1ccc(NS(=O)(=O)c2ccccc2)nc1-c1ccc(C)cc1 [Compound 148]
  Emax: > 60%
  EC50: 1 to 3 µM

## Cc1cc(C)cc(-c2nc(NS(=O)(=O)c3ccccc3)ccc2C)c1 [Compound 149]
  Emax: > 60%
  EC50: 3 to 30 µM

## Cc1ccc(-c2nc(NS(=O)(=O)c3ccccc3)ccc2C)c(C)c1 [Compound 150]
  Emax: > 60%
  EC50: 1 to 3 µM

## Cc1cc(C)cc(-c2cc(C)cc(NS(=O)(=O)c3ccccc3)n2)c1 [Compound 151]
  Emax: 30 to 60%
  EC50: 3 to 30 µM

## Cc1cc(NS(=O)(=O)c2ccccc2)nc(-c2ccc(C)cc2C)c1 [Compound 152]
  Emax: > 60%
  EC50: 3 to 30 µM

## Cc1cc(NS(=O)(=O)c2ccccc2)nc(-c2ccc(C)c(C)c2)c1 [Compound 153]
  Emax: > 60%
  EC50: 3 to 30 µM

## Cc1cc(NS(=O)(=O)c2ccccc2)nc(-c2cccc(C)c2C)c1 [Compound 154]
  Emax: > 60%
  EC50: 3 to 30 µM

## Cc1cc(C)cc(-c2nc(NS(=O)(=O)c3ccccc3)cc(C)c2C)c1 [Compound 155]
  Emax: > 60%
  EC50: 1 to 3 µM

## Cc1ccc(-c2nc(NS(=O)(=O)c3ccccc3)cc(C)c2C)c(C)c1 [Compound 156]
  Emax: > 60%
  EC50: 3 to 30 µM

## Cc1ccc(-c2nc(NS(=O)(=O)c3ccccc3)cc(C)c2C)cc1C [Compound 157]
  Emax: > 60%
  EC50: 1 to 3 µM

## Cc1cccc(-c2nc(NS(=O)(=O)c3ccccc3)cc(C)c2C)c1C [Compound 158]
  Emax: > 60%
  EC50: 3 to 30 µM
